Test results as given in patent US20210094922A1, “Dyes for Analysis of Soluble Protein Aggregates or Misfolded Protein Oligomers” (The Penn State Research Foundation, priority 2018, published 2021).

Assays:
[1] = Photophysical parameters of fluorophores in glycerol; format: physicochemical
Protocol: FP analogues (20 μM) were prepared in glycerol:H2O mixture with increasing glycerol concentrations. In addition, fluorescence intensity in 1,4-dioxane was measured to evaluate their response to polarity. Fluorescence measurement was carried out using a Tecan infinite M1000Pro fluorescence microplate reader at excitation and emission wavelengths as indicated. All readings were normalized against the fluorescence intensity in 100% glycerol as 1. Error bars: standard error (n=3).
FP analogues (20 μM) were prepared in glycerol. Spectra were collected with emission wavelength of 420 nm for 1, 525 nm for 2, 620 nm for 3, 3a and 3b. All measurements were carried out using a Tecan infinite M1000Pro fluorescence microplate reader.
FP analogues (20 μM) were prepared in glycerol. Spectra were collected with excitation wavelength of 370 nm for 1, 455 nm for 2, 530 nm for 3 and 3b, 485 nm for 3a. All measurements were carried out using a Tecan infinite M1000Pro fluorescence microplate reader.
FP analogues (10 μM) were prepared in glycerol. Spectra were collected with 10 mm quartz cuvette. All measurements were carried out using Agilent 300 UV-Vis spectrophotometer.
However, the quantum yield (QY, Φ=0.001 for 1 and Φ=0.027 for 2 in glycerol, Table 2) was much lower than that of a GFP (Φ=0.79).

SOD1(V31A)-Halo [2] = target: SOD1(V31A)-Halo (UniProt P00441+P0A3G2, A155T/A167V/A172T/A224E/C128F/C176G/D78G/E160K/E257K/H272N/K175M/K195N/L47V/L88M/N227D/S58T/T264A/V32A/Y273L/Y87F); test: In vitro heat-induced aggregation of purified SOD1(V31A)-Halo-4 conjugate; format: biochemical; design: made in house; host or cells: E. coli BL21 DE3* (pET29b; pBAD σ32-I54N co-expressed)
Protocol: (§1) (a) Purified SOD1(V31A)-Halo and Halo-Tag proteins (42 μM), both of which were conjugated with 4 (21 μM), were incubated at varying temperatures (25, 37, 38.9, 41.8, 45.6, 50.7, 54.5, 57.2, and 59° C.). As control samples, 4 (21 μM) was prepared in buffer, 1,4-dioxane, glycerol, BSA (2 mg/mL). Fluorescence intensity was recorded at Ex=530 nm/Em=600 nm. All readings were normalized to intensity of the Halo-Tag-4 conjugate at 25° C. Fluorescence of protein samples was also visualized via UV transilluminator. In addition, protein samples were centrifuged at 21,000 g for 30 min at 4° C. to analyze their insoluble fraction using fluorescence of 4 as signal on SDS-PAGE gel. […] This fluorescence was not originated from aggregation of Halo-Tag domain, as evidenced by the low fluorescence of the Halo-4 conjugate and lack of significant insoluble fraction at these temperatures. Error bars: standard error (n=3). (b) Purified SOD1(V31A)-Halo and Halo-Tag proteins ([…]) were conjugated with 4 (21 μM) and incubated at 54.5° C. Fluorescence was recorded using Agilent Carey Eclipse fluorescence spectrophotometer with temperature control. Buffer condition: 50 mM Tris-HCl, pH 7.5, 100 mM NaCl, 83 mM EDTA. Parameters for fluorescence measurement: 4 (Ea=530 nm/Em=600 nm).
(§2) (a) Purified SOD1(V31A)-Halo (42 μM) was conjugated with 4 (21 μM) and incubated at 54.5° C. Fluorescence was recorded using Agilent Carey Eclipse fluorescence spectrophotometer with temperature control. Turbidity was recorded using Agilent 300 UV-Vis spectrophotometer. Buffer condition: 50 mM Tris-HCl, pH 7.5, 100 mM NaCl, 83 mM EDTA. (b) Kinetics of fluorescence increases from the SOD1(V31A)-Halo-4 conjugate (red curve) was compared to the kinetics of protein misfolding (black curve) as measured by Tryptophan fluorescence change. Fluorescence was recorded using Agilent Carey Eclipse fluorescence spectrophotometer with temperature control. Experiments were carried out at 54.5° C. Parameters for fluorescence measurement: 4 (Ex=530 nm/Em=600 nm) and Trp (Ex=290 nm/Em=330 and 345 nm). Error bars: standard error (n=3).

SOD1(V31A)-Halo [3] = target: SOD1(V31A)-Halo (Rhodococcus rhodochrous, UniProt P0A3G2, A155T/A167V/A172T/A224E/C128F/C176G/D78G/E160K/E257K/H272N/K175M/K195N/L47V/L88M/N227D/P291S/S58T/T264A/Y273L/Y87F); test: as above; format: biochemical; design: made in house; host or cells: E. coli BL21 DE3* (pET29b; pBAD σ32-I54N co-expressed)
Protocol: as §1, §2

SOD1(V31A)-Halo (UniProt P00441+P0A3G2, A155T/A167V/A172T/A224E/C128F/C176G/D78G/E160K/E257K/H272N/K175M/K195N/L47V/L88M/N227D/S58T/T264A/V32A/Y273L/Y87F), sequence (P00441+P0A3G2 fused with the stated changes): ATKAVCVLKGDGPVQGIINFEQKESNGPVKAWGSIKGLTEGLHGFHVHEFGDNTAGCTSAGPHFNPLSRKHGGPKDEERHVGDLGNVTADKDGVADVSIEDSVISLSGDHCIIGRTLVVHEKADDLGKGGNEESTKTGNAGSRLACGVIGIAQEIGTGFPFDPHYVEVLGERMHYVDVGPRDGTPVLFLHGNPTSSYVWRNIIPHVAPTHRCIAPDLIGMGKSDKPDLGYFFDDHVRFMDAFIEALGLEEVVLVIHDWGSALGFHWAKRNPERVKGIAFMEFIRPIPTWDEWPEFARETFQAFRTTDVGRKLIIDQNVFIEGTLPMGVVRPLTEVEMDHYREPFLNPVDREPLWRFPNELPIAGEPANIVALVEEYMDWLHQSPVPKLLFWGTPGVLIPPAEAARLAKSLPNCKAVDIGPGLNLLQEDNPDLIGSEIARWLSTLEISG
SOD1(V31A)-Halo (Rhodococcus rhodochrous, UniProt P0A3G2, A155T/A167V/A172T/A224E/C128F/C176G/D78G/E160K/E257K/H272N/K175M/K195N/L47V/L88M/N227D/P291S/S58T/T264A/Y273L/Y87F), sequence (P0A3G2 other isoform, or with tags, fused parts or gaps with the stated changes): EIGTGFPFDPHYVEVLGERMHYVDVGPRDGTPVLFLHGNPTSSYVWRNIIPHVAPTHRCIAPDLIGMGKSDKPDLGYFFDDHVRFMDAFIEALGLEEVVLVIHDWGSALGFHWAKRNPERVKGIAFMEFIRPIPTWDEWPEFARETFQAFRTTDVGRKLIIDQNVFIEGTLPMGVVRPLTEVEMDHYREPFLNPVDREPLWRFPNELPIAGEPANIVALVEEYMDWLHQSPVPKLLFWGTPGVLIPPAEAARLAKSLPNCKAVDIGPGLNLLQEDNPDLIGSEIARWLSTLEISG

Compound: CN(C)c1ccc(/C=C2N=C(/C=C/c3ccc(N(CCO)CCO)cc3)N(CC(=O)N[C@H]3CC[C@H](C(=O)NCCOCCOCCCCCCCl)CC3)C\2=O)cc1 [Compound 4, (1r,4r)-4-(2-((Z)-2-((E)-4-(bis(2-hydroxyethyl)amino)styryl)-4-(4-(dimethylamino)benzylidene)-5-oxo-4,5-dihydro-1H-imidazol-1-yl)acetamido)-N-(2-(2-((6-chlorohexyl)oxy)ethoxy)ethyl)cyclohexanecarboxamide]
- fluorescent properties of 4 compared with 3 [1]: identical to 3
- B (brightness) ([1]; calculated using B = Φϵ): 8,734 M^−1cm^−1
- Φ (quantum yield) ([1]; in glycerol): 0.230
- λem ([1]; in glycerol): 628 nm
- λex ([1]; in glycerol): 530 nm
- λabs ([1]; maximum absorbance measured in glycerol): 534 nm
- ϵ (extinction coefficient) ([1]; measured in glycerol): 36,241 M^−1cm^−1
- fluorescence of the SOD1(V31A)-Halo-4 conjugate under heat (SOD1(V31A)-Halo [2]): increased in the absence of insoluble protein aggregates
- kinetics of fluorescence increase versus turbidity (SOD1(V31A)-Halo [2]; 54.5° C.): much faster than the kinetics of turbidity
- kinetics of fluorescence versus protein misfolding (SOD1(V31A)-Halo [2]; 54.5° C.): coincided with the kinetics of protein misfolding
- fluorescence of the Halo-4 conjugate control under heat (SOD1(V31A)-Halo [3]): remained non-fluorescent under all heat conditions
